Assay [1] deals with Serine/threonine-protein kinase Nek6 (Homo sapiens) (UniProt Q9HC98).
Assay [2] deals with Calcium/calmodulin-dependent protein kinase type II subunit delta (Homo sapiens) (UniProt Q13557).
The target in assay [3] is Mitogen-activated protein kinase 3 (Homo sapiens, UniProt P27361).
Assay [4] addresses Serine/threonine-protein kinase 38 (Homo sapiens) (UniProt Q15208).
Assay [5] addresses Serine/threonine-protein kinase RIO2 (Homo sapiens) (UniProt Q9BVS4).
Assay [6] concerns the target Death-associated protein kinase 3 (Homo sapiens) (UniProt O43293).
The target in assay [7] is T1, Calcium/calmodulin-dependent protein kinase type IV (Homo sapiens) (UniProt Q16566).
T1 sequence (whole entry): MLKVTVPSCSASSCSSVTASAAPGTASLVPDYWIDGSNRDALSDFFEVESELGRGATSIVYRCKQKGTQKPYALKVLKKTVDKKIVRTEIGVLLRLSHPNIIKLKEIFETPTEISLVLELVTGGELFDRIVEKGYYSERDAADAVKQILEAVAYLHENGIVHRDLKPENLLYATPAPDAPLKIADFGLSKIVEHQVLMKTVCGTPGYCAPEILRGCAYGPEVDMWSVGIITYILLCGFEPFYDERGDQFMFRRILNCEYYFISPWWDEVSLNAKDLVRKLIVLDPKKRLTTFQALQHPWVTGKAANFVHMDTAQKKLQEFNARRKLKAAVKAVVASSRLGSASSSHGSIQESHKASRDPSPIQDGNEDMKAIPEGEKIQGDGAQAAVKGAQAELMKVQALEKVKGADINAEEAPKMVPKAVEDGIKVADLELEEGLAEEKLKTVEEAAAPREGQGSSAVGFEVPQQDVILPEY

For assay [8], the target named is Calcium/calmodulin-dependent protein kinase type 1G (Homo sapiens) (UniProt Q96NX5).
Sequence of Calcium/calmodulin-dependent protein kinase type 1G (Homo sapiens) (Q96NX5 whole entry): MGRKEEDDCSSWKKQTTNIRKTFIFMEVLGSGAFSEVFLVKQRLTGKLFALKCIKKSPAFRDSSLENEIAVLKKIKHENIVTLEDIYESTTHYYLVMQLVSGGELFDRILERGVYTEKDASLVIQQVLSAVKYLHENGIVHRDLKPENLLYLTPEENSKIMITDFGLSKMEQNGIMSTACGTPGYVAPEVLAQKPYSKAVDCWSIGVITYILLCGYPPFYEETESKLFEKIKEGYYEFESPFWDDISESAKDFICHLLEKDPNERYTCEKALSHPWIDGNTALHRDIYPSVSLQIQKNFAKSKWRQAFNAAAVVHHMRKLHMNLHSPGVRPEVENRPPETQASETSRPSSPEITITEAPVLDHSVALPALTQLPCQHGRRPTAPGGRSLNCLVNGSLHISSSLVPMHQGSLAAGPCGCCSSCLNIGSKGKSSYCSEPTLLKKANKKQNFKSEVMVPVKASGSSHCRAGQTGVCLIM
Assay [9] concerns the target 5'-AMP-activated protein kinase catalytic subunit alpha-2 (Homo sapiens) (UniProt P54646).
For assay [10], the target named is Calcium/calmodulin-dependent protein kinase kinase 2 (Homo sapiens, UniProt Q96RR4).
Sequence of Calcium/calmodulin-dependent protein kinase kinase 2 (Q96RR4 2-588 limits assumed): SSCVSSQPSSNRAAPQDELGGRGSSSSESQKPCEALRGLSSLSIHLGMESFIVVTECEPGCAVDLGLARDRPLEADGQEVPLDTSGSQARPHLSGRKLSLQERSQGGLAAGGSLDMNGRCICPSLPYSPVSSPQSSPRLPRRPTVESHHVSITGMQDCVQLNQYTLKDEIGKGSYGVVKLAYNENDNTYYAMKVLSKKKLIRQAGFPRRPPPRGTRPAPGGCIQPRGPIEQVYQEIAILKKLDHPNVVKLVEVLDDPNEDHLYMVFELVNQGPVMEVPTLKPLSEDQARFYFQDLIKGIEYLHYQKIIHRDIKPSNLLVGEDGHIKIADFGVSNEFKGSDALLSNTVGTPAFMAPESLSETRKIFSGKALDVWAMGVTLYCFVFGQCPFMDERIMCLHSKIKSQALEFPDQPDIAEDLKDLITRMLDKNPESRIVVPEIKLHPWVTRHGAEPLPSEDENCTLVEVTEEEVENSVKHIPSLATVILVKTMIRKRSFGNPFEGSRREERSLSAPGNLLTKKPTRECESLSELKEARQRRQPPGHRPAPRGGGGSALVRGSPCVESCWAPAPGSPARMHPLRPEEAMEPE
The target of assay [11] is Cyclin-dependent kinase 16 (Homo sapiens) (UniProt Q00536).
Sequence of Cyclin-dependent kinase 16 (Homo sapiens) (Q00536 whole entry): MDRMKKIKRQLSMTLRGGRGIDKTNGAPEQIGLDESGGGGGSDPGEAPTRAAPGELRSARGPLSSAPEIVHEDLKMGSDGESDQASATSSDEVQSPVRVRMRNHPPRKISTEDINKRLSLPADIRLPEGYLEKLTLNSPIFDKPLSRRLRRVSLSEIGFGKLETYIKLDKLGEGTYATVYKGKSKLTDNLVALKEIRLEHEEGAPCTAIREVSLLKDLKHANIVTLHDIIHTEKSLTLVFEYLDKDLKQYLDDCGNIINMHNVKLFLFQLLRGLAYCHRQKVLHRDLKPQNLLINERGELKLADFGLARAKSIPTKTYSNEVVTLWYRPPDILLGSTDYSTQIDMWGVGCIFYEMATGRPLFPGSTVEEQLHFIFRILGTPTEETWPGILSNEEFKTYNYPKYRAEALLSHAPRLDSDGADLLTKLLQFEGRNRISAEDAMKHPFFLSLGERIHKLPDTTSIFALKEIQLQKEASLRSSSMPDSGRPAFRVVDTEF
The target in assay [12] is Ribosomal protein S6 kinase alpha-3 (Homo sapiens) (UniProt P51812).
Sequence of Ribosomal protein S6 kinase alpha-3 (Homo sapiens) (P51812 whole entry): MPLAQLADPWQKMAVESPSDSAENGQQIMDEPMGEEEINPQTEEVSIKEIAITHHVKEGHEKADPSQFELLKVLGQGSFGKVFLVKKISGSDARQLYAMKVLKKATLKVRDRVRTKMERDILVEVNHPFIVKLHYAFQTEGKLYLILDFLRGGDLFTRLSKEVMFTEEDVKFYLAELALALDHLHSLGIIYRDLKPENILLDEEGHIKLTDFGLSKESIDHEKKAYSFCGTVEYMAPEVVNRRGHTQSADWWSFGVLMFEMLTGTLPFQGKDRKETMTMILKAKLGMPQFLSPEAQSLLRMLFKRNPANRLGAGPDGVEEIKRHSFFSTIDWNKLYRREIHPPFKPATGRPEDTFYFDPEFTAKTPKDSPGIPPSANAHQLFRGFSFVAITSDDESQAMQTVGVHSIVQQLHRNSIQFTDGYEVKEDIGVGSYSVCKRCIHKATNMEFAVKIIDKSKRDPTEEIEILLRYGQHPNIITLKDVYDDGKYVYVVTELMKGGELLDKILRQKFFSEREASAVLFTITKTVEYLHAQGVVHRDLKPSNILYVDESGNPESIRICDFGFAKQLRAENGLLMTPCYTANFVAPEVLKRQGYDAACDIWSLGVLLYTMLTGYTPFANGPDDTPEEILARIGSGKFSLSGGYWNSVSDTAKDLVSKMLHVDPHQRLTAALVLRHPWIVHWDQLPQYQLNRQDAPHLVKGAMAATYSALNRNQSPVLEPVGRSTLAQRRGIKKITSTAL
Assay [13] addresses Calcium/calmodulin-dependent protein kinase type 1D (Homo sapiens) (UniProt Q8IU85).
For assay [14], the target named is Casein kinase I isoform gamma-3 (Homo sapiens) (UniProt Q9Y6M4).
Assay [15] has as its target Serine/threonine-protein kinase PLK1 (Homo sapiens) (UniProt P53350).
Assay [16] has as its target T2, Dual specificity mitogen-activated protein kinase kinase 6 (Homo sapiens) (UniProt P52564).
T2 sequence (whole entry): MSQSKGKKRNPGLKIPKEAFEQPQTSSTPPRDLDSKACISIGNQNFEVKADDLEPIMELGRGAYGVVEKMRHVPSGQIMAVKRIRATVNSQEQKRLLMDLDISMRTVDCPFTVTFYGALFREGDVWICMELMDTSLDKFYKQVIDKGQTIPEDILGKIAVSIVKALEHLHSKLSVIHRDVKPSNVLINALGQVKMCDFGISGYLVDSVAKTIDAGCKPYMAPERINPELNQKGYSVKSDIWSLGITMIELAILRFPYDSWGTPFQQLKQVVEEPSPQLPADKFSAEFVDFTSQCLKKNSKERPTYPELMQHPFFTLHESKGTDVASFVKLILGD

In assay [17] the target is Dual specificity mitogen-activated protein kinase kinase 2 (Homo sapiens, UniProt P36507).
Assay [18] addresses Serine/threonine-protein kinase 26 (Homo sapiens) (UniProt Q9P289).

The structures appear in SMILES notation.

Sequence of Serine/threonine-protein kinase Nek6 (Homo sapiens) (Q9HC98 whole entry): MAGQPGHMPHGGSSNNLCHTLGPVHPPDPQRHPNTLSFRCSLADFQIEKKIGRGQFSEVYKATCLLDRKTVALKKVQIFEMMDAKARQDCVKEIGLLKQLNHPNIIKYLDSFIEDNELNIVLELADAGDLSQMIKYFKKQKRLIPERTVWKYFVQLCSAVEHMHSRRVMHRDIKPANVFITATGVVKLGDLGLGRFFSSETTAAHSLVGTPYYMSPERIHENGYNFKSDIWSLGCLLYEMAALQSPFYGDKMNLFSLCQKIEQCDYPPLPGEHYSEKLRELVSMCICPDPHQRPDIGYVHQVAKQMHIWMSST
Sequence of Calcium/calmodulin-dependent protein kinase type II subunit delta (Homo sapiens) (Q13557 whole entry): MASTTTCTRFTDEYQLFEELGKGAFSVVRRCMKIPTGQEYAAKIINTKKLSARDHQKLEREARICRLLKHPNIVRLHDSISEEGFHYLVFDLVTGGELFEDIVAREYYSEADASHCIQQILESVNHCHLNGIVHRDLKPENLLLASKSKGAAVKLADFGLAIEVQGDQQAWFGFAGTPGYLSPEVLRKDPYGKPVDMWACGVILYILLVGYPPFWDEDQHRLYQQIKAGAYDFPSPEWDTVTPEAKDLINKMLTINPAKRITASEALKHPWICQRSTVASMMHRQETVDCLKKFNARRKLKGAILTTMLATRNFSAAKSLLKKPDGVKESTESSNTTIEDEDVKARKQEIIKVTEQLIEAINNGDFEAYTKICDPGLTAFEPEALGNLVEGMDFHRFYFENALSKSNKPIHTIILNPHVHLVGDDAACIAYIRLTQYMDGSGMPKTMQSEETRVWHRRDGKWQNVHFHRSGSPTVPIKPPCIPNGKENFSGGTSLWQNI
Sequence of Serine/threonine-protein kinase RIO2 (Homo sapiens) (Q9BVS4 whole entry, looked up): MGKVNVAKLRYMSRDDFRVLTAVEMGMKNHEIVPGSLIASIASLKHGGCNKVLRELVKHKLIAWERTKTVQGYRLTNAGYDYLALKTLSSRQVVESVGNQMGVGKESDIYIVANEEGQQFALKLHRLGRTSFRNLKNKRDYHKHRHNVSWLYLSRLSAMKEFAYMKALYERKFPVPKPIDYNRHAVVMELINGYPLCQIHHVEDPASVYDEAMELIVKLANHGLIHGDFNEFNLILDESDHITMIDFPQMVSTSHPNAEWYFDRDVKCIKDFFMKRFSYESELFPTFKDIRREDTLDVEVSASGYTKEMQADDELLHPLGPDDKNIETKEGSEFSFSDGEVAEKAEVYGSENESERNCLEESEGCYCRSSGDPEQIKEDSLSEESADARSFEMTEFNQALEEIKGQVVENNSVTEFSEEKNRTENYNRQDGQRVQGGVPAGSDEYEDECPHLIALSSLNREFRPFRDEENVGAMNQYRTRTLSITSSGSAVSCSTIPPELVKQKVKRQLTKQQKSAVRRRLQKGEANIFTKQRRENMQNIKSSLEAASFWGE
Sequence of Calcium/calmodulin-dependent protein kinase type 1D (Homo sapiens) (Q8IU85 whole entry, looked up, canonical isoform): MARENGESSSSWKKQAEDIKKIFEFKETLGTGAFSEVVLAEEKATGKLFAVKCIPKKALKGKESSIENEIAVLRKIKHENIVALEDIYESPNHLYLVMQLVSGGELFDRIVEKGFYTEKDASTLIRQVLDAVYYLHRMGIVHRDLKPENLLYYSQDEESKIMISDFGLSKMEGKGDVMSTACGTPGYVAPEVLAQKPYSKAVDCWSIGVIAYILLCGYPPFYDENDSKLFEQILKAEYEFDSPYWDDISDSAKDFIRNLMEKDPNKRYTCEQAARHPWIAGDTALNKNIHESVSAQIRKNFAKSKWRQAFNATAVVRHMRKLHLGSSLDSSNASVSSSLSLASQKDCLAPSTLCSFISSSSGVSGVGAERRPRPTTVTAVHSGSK
Sequence of Serine/threonine-protein kinase PLK1 (Homo sapiens) (P53350 whole entry): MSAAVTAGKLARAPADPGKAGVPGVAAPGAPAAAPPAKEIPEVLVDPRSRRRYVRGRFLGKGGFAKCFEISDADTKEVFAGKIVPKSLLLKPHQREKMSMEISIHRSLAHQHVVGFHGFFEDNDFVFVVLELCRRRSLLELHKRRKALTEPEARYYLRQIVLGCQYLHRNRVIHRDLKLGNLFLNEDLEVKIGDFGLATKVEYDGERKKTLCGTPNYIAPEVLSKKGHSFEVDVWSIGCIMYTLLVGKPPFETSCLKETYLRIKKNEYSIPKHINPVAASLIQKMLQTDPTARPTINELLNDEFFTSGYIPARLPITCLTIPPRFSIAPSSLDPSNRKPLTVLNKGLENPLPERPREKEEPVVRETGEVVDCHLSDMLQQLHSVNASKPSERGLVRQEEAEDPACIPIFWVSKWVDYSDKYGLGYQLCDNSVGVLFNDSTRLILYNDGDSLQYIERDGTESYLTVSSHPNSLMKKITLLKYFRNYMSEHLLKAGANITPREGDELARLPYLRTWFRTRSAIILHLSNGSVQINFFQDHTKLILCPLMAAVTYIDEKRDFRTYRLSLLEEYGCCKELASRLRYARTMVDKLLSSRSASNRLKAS

Take `COc1ccc(Cl)cc1NC(=O)Nc1cc(C)nc2ccccc12`: the ΔTm (commonly the shift of the melting midpoint relative to a reference) came to 0 °C in assay [1]; 0.9 °C in assay [2]; 2.5 °C in assay [3]; 0.1 °C in assay [4]; 0.6 °C in assay [5]; 2.3 °C in assay [6]. Further, the ΔTm in assay [7] is 0.6 °C; in assay [8] it was 4.4 °C; in [9], -0.4 °C; in assay [10], 0.4 °C; in assay [11], 0.5 °C; in assay [12] it was 2.2 °C. Moreover, the ΔTm in assay [13] is 2.2 °C; in [14], 0.9 °C; in assay [15], 0.9 °C; in assay [16], -0.3 °C; in assay [17], 0.2 °C.
As to `O=C(Nc1cccc(Nc2nccc(Nc3cccc(C(F)(F)F)c3)n2)c1)C1CC1` [ANILINOPYRIMIDINE1], the ΔTm in [1] worked out at 1.7 °C; in [2] it was 0.6 °C; in assay [3], 0.9 °C; in [4] it was 0.4 °C; in assay [5], 3.7 °C; in [6], 6.5 °C. For the same molecule, the ΔTm in assay [7] was 0.7 °C; in assay [18], 0.7 °C; in [8], 3.8 °C; in assay [9], 1.5 °C; in [10] it was 2 °C; in assay [11], 3.2 °C. The thermal shift (ΔTm) was 4.8 °C in assay [12]; 2.8 °C in assay [13]; 2.2 °C in assay [14]; 3.3 °C in assay [15]; 0.2 °C in assay [16]; 0.8 °C in assay [17].
As for `O=C(Nc1cccc(Nc2cc(Nc3cccc(C(F)(F)F)c3)ncn2)c1)C1CC1`, the ΔTm in assay [1] is -0.4 °C; in [2], -2 °C; in [3], 1.5 °C; in [4], 1.5 °C; in [5], 3.4 °C; in [6], 2.1 °C. The ΔTm was -0.4 °C in [7]; 0.8 °C in assay [18]; 3.7 °C in assay [8]; -3.7 °C in assay [9]; 1.7 °C in [10]; 3.9 °C in assay [11]. The ΔTm in assay [12] is 5.6 °C; in [13], 2.6 °C; in assay [14] it was 0.2 °C; in assay [15] it was 0 °C; in assay [16], 2.1 °C; in [17], 1 °C.
As to `CC(C)[C@H](CO)Nc1nc(Nc2cc(N)cc(Cl)c2)c2ncn(C(C)C)c2n1` [AMINOPURVALANOL], the ΔTm amounted to 0 °C in assay [1]; 0.3 °C in assay [2]; 0.2 °C in assay [3]; 0.6 °C in assay [4]; 4.5 °C in [5]; 3.4 °C in [6]. For the same molecule, the shift in melting temperature (ΔTm) in assay [7] was 4.2 °C; in [8], 0.5 °C; in assay [9], 0.3 °C; in assay [10], 3.3 °C; in assay [11], 8.1 °C; in [12], -0.1 °C. The ΔTm in assay [13] was 0.7 °C; in assay [14], 1.1 °C; in assay [15], 1 °C; in assay [16], 1.3 °C; in assay [17], 0.1 °C.
`Cc1nc(N)sc1-c1ccnc(Nc2cccc([N+](=O)[O-])c2)n1`: the ΔTm was 1.4 °C in assay [1]; -0.4 °C in assay [2]; 2.7 °C in assay [3]; 0.6 °C in assay [4]; 3.6 °C in assay [5]; 8.7 °C in assay [6]. Also, the ΔTm in [7] was 1.8 °C; in [18] it was 0.4 °C; in [8], 4.1 °C; in [9] it was 3 °C; in assay [10] it was 3.6 °C; in assay [11], 3.9 °C. The ΔTm in assay [12] was 5.9 °C; in assay [13] it was 2.5 °C; in assay [14], 1.3 °C; in assay [15] it was 4.6 °C; in [16], 1.2 °C; in assay [17], 2.7 °C.
For `Cc1ccc(NC2=CC(=O)c3sc(C)nc3C2=O)cc1`, the shift in melting temperature (ΔTm) in assay [1] was -0.6 °C; in assay [2], 0.1 °C; in assay [3] it was -1.5 °C; in [4] it was -1 °C; in [5], 0.6 °C; in assay [6] it was -0.2 °C. The ΔTm is 3.7 °C in [7]; -0.5 °C in assay [18]; -1.4 °C in assay [8]; 0 °C in [9]; -2.4 °C in [10]; -0.9 °C in [11]. Also, the thermal shift (ΔTm) in assay [12] was -0.5 °C; in assay [13], -1.6 °C; in assay [14], -4.3 °C; in assay [15], -0.2 °C; in assay [16], -0.2 °C; in assay [17], -2 °C.
Take `CN1CCc2[nH]c(=S)c(C#N)c(-c3cccs3)c2C1`: the thermal shift (ΔTm) in assay [1] is 0 °C; in [2] it was -0.8 °C; in assay [3], 0.6 °C; in assay [4], 0.5 °C; in assay [5], 0.3 °C; in [6], 0.3 °C. Besides, the ΔTm in assay [7] turned out to be 1.9 °C; in assay [8] it was 2.5 °C; in [9], 0.4 °C; in assay [10], 3.8 °C; in [11] it was 4.1 °C; in assay [12], 0.7 °C. For the same molecule, the ΔTm is 1.3 °C in assay [13]; 0.2 °C in assay [14]; 2.4 °C in assay [15]; -0.2 °C in assay [16]; -0.2 °C in [17].
For `CC(C)c1nn(-c2c(Cl)cccc2Cl)c2nc(Cc3ccc(OCCO)cc3)[nH]c(=O)c12`, the thermal shift (ΔTm) came to 2 °C in assay [1]; 0.6 °C in [2]; 3.4 °C in assay [3]; 0.3 °C in assay [4]; 0.1 °C in [5]; 6.2 °C in assay [6]. Moreover, the ΔTm in assay [7] is -3.4 °C; in [18], 0.5 °C; in [8], 0.3 °C; in [9], 1 °C; in assay [10], 1.7 °C; in assay [11] it was -0.6 °C. In addition, the ΔTm was -0.9 °C in [12]; 0.1 °C in assay [13]; 1.3 °C in assay [14]; 1.4 °C in assay [15]; 0.1 °C in [16]; 0.4 °C in [17].
For `CN(c1cccnc1)c1cc2c(Nc3ccc(F)c(Cl)c3)c(C#N)cnc2cn1`, the ΔTm in assay [1] is 1.5 °C; in [2] it was 2.7 °C; in assay [3], -1.9 °C; in assay [4] it was 0.3 °C; in [5], 6.1 °C; in assay [6], 0.7 °C. Further, the ΔTm in assay [7] was -3.4 °C; in [18], 0.7 °C; in assay [8] it was 2.4 °C; in assay [9] it was 4.8 °C; in [10], 1.9 °C; in [11], 0.1 °C. The ΔTm is 8.5 °C in assay [12]; 1.9 °C in assay [13]; 3.7 °C in assay [14]; 0.7 °C in assay [15]; 0.4 °C in assay [16]; 2.1 °C in assay [17].
